Measured values published in ChEMBL document CHEMBL1157694, “Synthesis of a new cytotoxic cephalostatin/ritterazine analogue from hecogenin and 22-epi-hippuristanol” (2010).

What was measured:
Format in all cases: functional
MDA-MB-231 = assay: Growth inhibition of human MDA-MB-231 cells after 72 hrs by sulforhodamine B assay; conditions: MDA-MB-231, 72 h
A549 = assay: Growth inhibition of human A549 cells after 72 hrs by sulforhodamine B assay; conditions: A549, 72 h
HT-29 = assay: Growth inhibition of human HT-29 cells after 72 hrs by sulforhodamine B assay; conditions: HT-29, 72 h

| SMILES | GI50 (MDA-MB-231) [nM] | GI50 (A549) [nM] | GI50 (HT-29) [nM] |
| --- | --- | --- | --- |
| C[C@H]1CC[C@@]2(OC1)O[C@H]1C[C@H]3[C@@H]4CC[C@H]5Cc6nc7c(nc6C[C@]5(C)[C@H]4CC(=O)[C@]3(C)[C@H]1[C@@H]2C)C[C@@H]1CC[C@H]2[C@@H]3C[C@@H]4O[C@]5(C[C@H](C)C(C)(C)O5)[C@](C)(O)[C@@H]4[C@@]3(C)CC(=O)[C@@H]2[C@@]1(C)C7 | 2000 | 1600 | 1600 |
| C[C@H]1CC[C@@]2(OC1)O[C@H]1C[C@H]3[C@@H]4CC[C@H]5Cc6nc7c(nc6C[C@]5(C)[C@H]4CC(=O)[C@]3(C)[C@H]1[C@@H]2C)C[C@@H]1CC[C@@H]2[C@H](CC(=O)[C@]3(C)[C@@H]4[C@H](C[C@@H]23)O[C@]2(CC[C@H](C)CO2)[C@H]4C)[C@@]1(C)C7 | 2600 | 1700 | 2100 |
| C[C@H]1C[C@]2(O[C@H]3C[C@H]4[C@@H]5CC[C@H]6C[C@H](O)CC[C@]6(C)[C@H]5[C@@H](O)C[C@]4(C)[C@H]3[C@@]2(C)O)OC1(C)C [EPIHIPPURISTANOL] | 5600 | 3200 | 4500 |
